From a melting point compilation (Tetko et al.; mined from patent text by program, amines drawn as free bases though some values may be those of a salt)

| SMILES | melting point [°C] |
| --- | --- |
| COC(=O)c1nc(-c2ccc(Cl)c(F)c2F)nc(N)c1/C=C/[Si](C)(C)C | 139 to 141 |
| CCC(C(C)C)C1OC1C(C)C1CCC2C3CCC4=CC(=O)CCC4(C)C3CCC12C (configuration not stated) | 111 to 112 |
| CCCSc1ccc(-c2coc3ccc(-c4nnc(C)o4)cc23)cc1 | 101 to 102 |
| CCCC(C(=O)O)n1c(=O)c(=O)[nH]c2ccccc21 (configuration not stated) | 272 to 275 |
| N#Cc1nn(-c2c(Cl)cc(C(F)(F)F)cc2Cl)cc1C1CC(=O)C1 | 127 |
| NC1=C2C=NN=C2N(c2ccccc2)CN1c1ccccc1 | 244 to 246 |
| CCOc1ccc(C(=O)CCC(=O)Nc2cc(OCc3ccccc3)cc(-c3ccccc3)n2)cc1OCC | 156 to 157 |
| Clc1ccc(-c2cc(C3CC3)nc(Cl)n2)cc1 | 70 to 72 |
| O=C(O)c1ccc2c(-c3ccccc3)coc2c1 | 160 to 170 |
| COc1cc2c(cc1C#Cc1ccc(C(=O)O)cc1)C(C)(C)CCC2(C)C | 231 to 234 |
| CCOC(=O)COc1cc2c(cc1Cl)C(=O)CC1(CCCCC1)O2 | 116 to 117 |
| CCCCSc1cc(C(=O)OCC#N)cc(S(N)(=O)=O)c1Cc1ccccc1 | 112 to 114 |
| COc1cc(OC)nc(OC)c1 | 47 to 49 |
| CCOc1cnc2nc(SCc3ccccc3)nn2c1 | 139 to 140 |
| Oc1cc(C(F)(F)F)nc(C(F)(F)F)c1 | 123 to 130 |
| CC1Cc2cc(O)c(Cl)c(Cl)c2C1=O (configuration not stated) | 224 to 230 |
| COc1ccc(OCc2ccccc2)cc1CBr | 88 to 90 |
| CCCCC(=O)Nc1ccc(Cl)c(-n2nc(CCCC)c(Cc3ccc(-c4ccccc4S(=O)(=O)NC(=O)c4ccccc4Cl)cc3)c2C(=O)O)c1 | > 110 |
| CC(C)S(=O)(=O)n1c(N)nc2ccc(C(=CBr)c3ccccc3)cc21 | 180 to 182 |
| Nc1nc2ccccc2c2c1ncn2CCOCc1ccncc1 | 159 to 161 |
| CSc1ccc(CCCOCCCCCCNCC(O)c2ccc(O)c(F)c2)cc1 (configuration not stated) | 66 to 67 |
| CCCC(=O)N1CCc2cc(S(=O)(=O)N3CCN(c4cccc(Cl)c4)CC3)ccc21 | 267 to 268 |
| COC(=O)c1ccc(OCCCNc2ccc(NCc3ccc4c(c3)OCCO4)cc2)cc1 | 185 to 188 |
| Cc1nc2ccccc2c(=O)n1CCN1CCC(c2noc3cc(F)ccc23)CC1 | 164 to 165 |
| Cc1ccc(C(=O)Nc2ccc(C#N)cc2)cc1Nc1ncc(-c2cccnc2)o1 | 203 |
| CNC(=O)Cn1c(Cl)ccc1Cl | 193 to 194 |

| SMILES | melting point [°C] |
| --- | --- |
| CC(C)c1cccc(C(C)C)c1NS(=O)(=O)CC(=O)O | 153 to 155 |
| COc1cc(OC)c2c(=O)[nH]c(-c3ccc(OCCNC(C)C)c(-c4ccc(S(C)=O)cc4)n3)nc2c1 (configuration not stated) | 93 to 95 |
| O=C1Nc2ccccc2C1=Cc1ccccn1 | 204 to 205 |
| Nc1c(OCCCBr)cccc1[N+](=O)[O-] | 88 to 89 |
| CCOC(=O)CN(CP(=S)(Oc1ccccc1)Oc1ccccc1)C(=O)C(F)(F)F | 50 to 52 |
| CC(C)(C)OC(=O)C1CCN(C(=O)C2CN(c3ccc(C(=N)N)cc3)C(=O)O2)CC1 (configuration not stated) | 160 |
| CC(=O)Oc1ccc(Cn2ccnc2SC(C)=O)cc1 | 99 to 101 |
| COc1cc(C)nc(NC(=O)NS(=O)(=O)c2cccc3c2S(=O)(=O)C(C)(C)S3(=O)=O)n1 | 191 to 200 |
| COC(=O)c1nc(-c2ccc(Cl)c(OC)c2F)nc(O)c1OC | 177 to 179 |
| Cc1ccc(-c2c3ccccc3nn2Cc2ccccc2)cc1 | 111 |
| COc1ccc(C(=O)Nc2ccc(F)cc2)cc1NS(=O)(=O)c1cccc([N+](=O)[O-])c1 | 221 to 240 |
| COc1ccc(CC2CCC3=C(C2)CC(C)C(=O)N3)cc1 (configuration not stated) | 182 to 184 |
| Cc1ccc(-c2ccc3c(c2)C=C(S(=O)(=O)Cl)CCO3)cc1 | 162 to 166 |
| O=c1[nH]c(CO)nc2cc3c(cc12)CCC3 | 205 to 210 |
| CNS(=O)(=O)C[C@H]1c2cc(OCCCC(F)(F)F)ccc2OC(C)(C)[C@@H]1O | 178 to 179 |
| COC(=O)c1ccc(Br)cc1Cl | 28 to 30 |
| CCNC(=Nc1ccccc1N1CCOCC1)NC | 118 to 119 |
| CCOC(=O)C(=CNc1cccc(N2CCN(C)CC2)n1)C(=O)OCC | 114 to 115 |
| CSc1ccc(/C=C2/C(C)=C(CC=NO)c3cc(F)ccc32)cc1 | 146 to 150 |
| Oc1c(C2CCCC2)cc(CSCc2cc(C3CCCC3)c(O)c(C3CCCC3)c2)cc1C1CCCC1 | 149 to 150 |
| Nc1nc(Oc2ccccc2)c2nc[nH]c2n1 | 228 |
| CC(C)(C)OC(=O)C(CC(O)(C(F)(F)F)C(F)(F)F)NC(=O)OCc1ccccc1 (configuration not stated) | 83 to 89 |
| O=c1[nH]cc(-c2ccccc2)c2ncccc12 | 260 to 263 |
| NCC(O)C1=CC2(CC2)c2ccccc21 (configuration not stated) | 133 to 134 |
| C=CC(C)(C)C(=O)COc1ccc(-c2ccccc2)cc1 | 42 to 44 |
| C=CCN(CC=C)c1nc(NC(=O)Cc2cccs2)n2oc(=O)nc2n1 | 140 to 142 |

| SMILES | melting point [°C] |
| --- | --- |
| c1cc2c(c(N3CCNCC3)n1)CCO2 | 89.5 |
| CN1C(=O)CN(N=Cc2ccccc2)C1=O | 253 to 255 |
| Cn1c(=Nc2ccccc2)sc2ncccc2c1=O | 189 to 190 |
| OCC1CC(n2c(Br)nc3cc(Cl)c(Cl)cc32)C(O)C1O (configuration not stated) | 208 to 211 |
| COc1cc(-c2c(Cl)c(CN3CCCC3=O)nc3sc4c(c23)CCN(Cc2ccccc2)C4)ccc1O | 190 to 191 |
| O=C(CNC(=O)c1ccc([N+](=O)[O-])c(F)c1)OCC(Cl)(Cl)Cl | 142 to 144 |
| COCc1c(C(=O)OC(C)C)ncc2[nH]c3ccc(OCc4ccccc4Cl)cc3c12 | 135 to 141 |
| O=C(Nc1cccc(Oc2ccc3nc(NC(=O)C4CC4)cn3n2)c1)c1ccccc1 | 265 |
| CCOC(=O)CN1C(=O)COc2cc(N)ccc21 | 136 to 137 |
| COc1ccc(C(=O)Nc2ccccc2Nc2ccccc2)cc1 | 148 to 150 |
| O=C(COc1ccc2ccc(=O)oc2c1)c1ccccc1 | 163 to 165 |
| ClCCCCCOc1ccc(C2=C(c3ccccc3)CCCc3ccccc32)cc1 | 118 to 120 |
| CC(C)(O)P(=O)(Oc1ccccc1)Oc1ccccc1 | 70 to 72 |
| CCOC(=O)c1c(C(F)(F)F)nc2cc(C(F)(F)F)ccc2c1O | 156 |
| CCc1nnc2c(NC(C)=O)nc3ccccc3n12 | 193 to 195 |
| CC(C)C[C@H](NC(=O)OCc1ccccc1)C(=O)N[C@@H](Cc1ccccc1)C(=O)CSCc1ccc(Cl)s1 | 105 to 107 |
| CC(=O)OCc1ccc(-c2ccccc2)cn1 | 71 to 72 |
| CC(=O)N1c2ccccc2-c2c([N+](=O)[O-])cnn2C1c1ccc(Cl)cc1 (configuration not stated) | 183 to 184 |
| O=C(NCCC[PH](=O)O)OCc1ccccc1 | 53 to 55 |
| OC(=S)Cc1cccc2ccccc12 | 106 |
| O=C1C(=Cc2ccncc2)c2ccccc2N1c1ccccc1 | 160 to 162 |
| CC(C)n1nc(OS(=O)(=O)C(F)(F)F)ccc1=O | 45 to 46 |
| CN1C(=O)Cc2cc3ccccc3cc2S1(=O)=O | 126 to 127 |
| O=c1ccc(-c2ccc(Oc3ccc4c(c3)CCN(C3CCC3)CC4)nc2)n[nH]1 | 215 to 220 |
| CCOC(=O)C(=O)Oc1cccc(-c2cn3c(n2)sc2ccccc23)c1 | 120 to 121 |
| N#Cc1ccc(N2C(=O)C3C(F)CCN3C2=O)c2ccccc12 (configuration not stated) | 228 to 230 |

| SMILES | melting point [°C] |
| --- | --- |
| CN(C)c1ccc(-c2nnc(S)nc2-c2ccc(N(C)C)cc2)cc1 | 276 to 279 |
| COc1ccc2nc(COc3ccc4c(c3)C(SCCC(=O)O)c3ccccc3CO4)ccc2c1 (configuration not stated) | 174 to 175 |
| O=C(O)COc1coc2ccccc2c1=O | 154 to 164 |
| COc1cc2nc(N3CCN(C(=O)C4CCCC4)CC3)nc(N)c2cc1OC | 256 to 259 |
| CCCCCCCCCCCC(=O)CO | 52 to 54 |
| CCCc1c(OCC2COc3cc(CC(=O)O)ccc3O2)ccc(C(C)=O)c1O (configuration not stated) | 143 to 146 |
| CN1c2ccccc2C(C#N)c2ccccc21 | 141 to 143 |
| c1ccc2cc(OCCCNC3CCCCC3)ccc2c1 | 98 |
| CCCCC1CCc2cc(C(=O)C(C)C)cc3c(CCN4CCN(c5cc(C)ccn5)CC4)c(C)n1c23 (configuration not stated) | 150 |
| Cn1c2ccccc2c2nc3cccc(CCl)c3nc21 | 204 to 206 |
| Clc1nc(-n2cnc(-c3ccccc3)c2-c2ccccc2)c2[nH]cnc2n1 | 278 |
| CS(=O)c1nnc(Sc2cc(C(C)(C)C)c(O)c(C(C)(C)C)c2)s1 (configuration not stated) | 162 to 164 |
| COc1cc(COc2nn(Cc3cccnc3)cc2CO)ccc1OCc1nc(-c2ccco2)oc1C | 90 to 91 |
| CC1(C)CCC(C)(C)c2cc3c(cc21)CCc1c(-c2ccc(C(=O)O)cc2)ccnc1-3 | 286 to 289 |
| CCc1nn(C2CCCCC2)c2cc(C(=O)Nc3c(Cl)cncc3Cl)ccc12 | 124 to 127 |
| CC(=O)Nc1ccc(OCc2nc3ccccc3o2)cc1C | 160 |
| NNC(=O)c1ccc(OCc2ccccc2)cn1 | 140 to 142 |
| CNN(NC)C(=O)Nc1cccc2c1C(=O)c1c-2n[nH]c1-c1ccc(OC)cc1 | > 300 |
| C/C(=C\C=C(c1ccccc1)c1ccccc1)C(=O)Oc1ccc([N+](=O)[O-])cc1 | 139 to 141 |
| Cc1cccc(NC(=O)NCC(=O)N(CC(=O)NCc2ccccc2)c2ccccc2)c1 | 204 |
| CN(C)[C@@H]1CN2C(=O)N(c3cc(Cl)cc(Cl)c3)C(=O)[C@@]2(Cc2ccc(Br)cc2)C1 | 54 |
| CCC(=O)N1CCC[C@H]1C(=O)O | 98 to 99 |
| O=S(=O)(CCO)C(F)(F)C(O)(Cn1cncn1)c1ccc(F)cc1F (configuration not stated) | 113 to 115 |
| CC(NC(=O)NC1N=C(c2ccccc2)c2ccccc2N(C)C1=O)c1ccccc1 (configuration not stated) | 146 to 150 |
